According to patent US20100159039A1, “ANTIVIRAL AGENTS CONTAINING A FERMENTATION PRODUCT OF GARLIC BY LACTIC ACID BACTERIA” (Liisna Inc., priority 2008, published 2010):
≈ marks a conversion by molar mass, not a printed value. Where two headings read alike, the source gives them in different places.

How the values were obtained:
in vitro = settings: dog
[1] = system: influenza virus Type B (B/Panama/45/90); experiment: CPE inhibition assay in MDCK cells, influenza B; type: cell-based; settings: for EC50: Influenza B virus, MDCK, 72 h, read-out: Antiviral activity (EC50) Panama B
[2] = system: influenza virus Type H3N2 (A/Seoul/11/88); experiment: CPE inhibition assay in MDCK cells, influenza A/H3N2; type: cell-based; settings: for EC50: 72 h, MDCK cells, 100 CCID50, three days, read-out: Antiviral activity (EC50) Seoul A/H3N2
[3] = system: influenza virus Type H1N1 (A/Taiwan/1/86); experiment: CPE inhibition assay in MDCK cells, influenza A/H1N1; type: cell-based; settings: for EC50: 72 h, MDCK cells, 100 CCID50, three days, read-out: Antiviral activity (EC50) Taiwan A/H1N1
[4] = system: MDCK (Madin-Darby canine kidney) cells

Row | SMILES | CC50 (in vitro) | EC50 [1] | Selectivity index (SI, CC50/EC50) Seoul A/H3N2 [2] | EC50 [2] | EC50 [3] | Selectivity index (SI, CC50/EC50) Panama B [1] | Toxicity CC50 (50% cytotoxic concentration) [4] | Selectivity index (SI, CC50/EC50) Seoul A/H3N2 ([2]; CC50/EC50) | Selectivity index (SI, CC50/EC50) Taiwan A/H1N1 ([3]; CC50/EC50) | Selectivity index (SI, CC50/EC50) Taiwan A/H1N1 [3]
1 | NC12CC3CC(CC(C3)C1)C2 [Amantadine, amantadine] | > 100 µg/mL | > 100 µg/mL | >204.1 | 0.49 µg/mL (≈ 3.24 µM) | > 100 µg/mL | – | – | – | – | –
2 | CC(O)C(=O)O (centres unmarked) [Lactic acid, lactic acid] | – | – | – | – | – | <1.00 | 0.014 | <1.00 | <1.00 | –
3 | CCOC(=O)C1=C[C@@H](OC(CC)CC)[C@H](NC(C)=O)[C@@H](N)C1 [Oseltamivir, oseltamivir] | > 100 µg/mL | 10.1 µg/mL (≈ 32.5 µM) | – | 0.49 µg/mL (≈ 1.57 µM) | 16.4 µg/mL (≈ 52.3 µM) | >9.9 | – | >202.4 | >6.1 | –
4 | NC(=O)c1ncn([C@@H]2O[C@H](CO)[C@@H](O)[C@H]2O)n1 [Ribavirin, ribavirin] | > 100 µg/mL | 2.29 µg/mL (≈ 9.38 µM) | >34.7 | 2.88 µg/mL (≈ 11.8 µM) | 6.54 µg/mL (≈ 26.8 µM) | >43.7 | – | – | – | >15.3
